Test results taken from ChEMBL document CHEMBL2074133, “Effect of phenobarbital on the expression of bile salt and organic anion transporters of rat liver” (J Hepatol, 2001).

What was measured:
Assay type in all cases: functional, organism-based, Sprague-Dawley
[1] = molecular target: T1, Solute carrier organic anion transporter family member 1A1 (Rattus norvegicus, UniProt P46720); assay: (§1) TP_TRANSPORTER: Northern blot in vivo SD rat, liver
T1 sequence (P46720 whole entry): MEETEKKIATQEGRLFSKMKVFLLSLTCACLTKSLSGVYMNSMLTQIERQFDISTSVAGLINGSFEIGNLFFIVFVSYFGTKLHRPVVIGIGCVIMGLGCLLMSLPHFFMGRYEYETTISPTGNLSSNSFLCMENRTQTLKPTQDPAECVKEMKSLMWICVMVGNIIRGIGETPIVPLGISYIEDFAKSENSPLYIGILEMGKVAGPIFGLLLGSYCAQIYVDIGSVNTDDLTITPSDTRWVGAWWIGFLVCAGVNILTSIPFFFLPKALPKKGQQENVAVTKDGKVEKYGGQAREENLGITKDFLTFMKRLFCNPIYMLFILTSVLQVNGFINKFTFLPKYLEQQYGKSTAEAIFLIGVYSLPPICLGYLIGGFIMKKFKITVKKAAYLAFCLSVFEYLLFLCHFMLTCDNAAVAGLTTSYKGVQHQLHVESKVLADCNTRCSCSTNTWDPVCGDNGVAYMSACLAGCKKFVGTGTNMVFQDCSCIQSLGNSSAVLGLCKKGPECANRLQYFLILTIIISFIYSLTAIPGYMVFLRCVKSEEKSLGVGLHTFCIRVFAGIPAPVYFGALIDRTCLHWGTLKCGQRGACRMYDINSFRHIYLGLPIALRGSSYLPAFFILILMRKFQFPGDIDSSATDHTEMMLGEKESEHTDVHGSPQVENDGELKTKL

[2] = molecular target: T2, Solute carrier organic anion transporter family member 1A4 (Rattus norvegicus, UniProt O35913); assay: as §1
T2 sequence (O35913 whole entry): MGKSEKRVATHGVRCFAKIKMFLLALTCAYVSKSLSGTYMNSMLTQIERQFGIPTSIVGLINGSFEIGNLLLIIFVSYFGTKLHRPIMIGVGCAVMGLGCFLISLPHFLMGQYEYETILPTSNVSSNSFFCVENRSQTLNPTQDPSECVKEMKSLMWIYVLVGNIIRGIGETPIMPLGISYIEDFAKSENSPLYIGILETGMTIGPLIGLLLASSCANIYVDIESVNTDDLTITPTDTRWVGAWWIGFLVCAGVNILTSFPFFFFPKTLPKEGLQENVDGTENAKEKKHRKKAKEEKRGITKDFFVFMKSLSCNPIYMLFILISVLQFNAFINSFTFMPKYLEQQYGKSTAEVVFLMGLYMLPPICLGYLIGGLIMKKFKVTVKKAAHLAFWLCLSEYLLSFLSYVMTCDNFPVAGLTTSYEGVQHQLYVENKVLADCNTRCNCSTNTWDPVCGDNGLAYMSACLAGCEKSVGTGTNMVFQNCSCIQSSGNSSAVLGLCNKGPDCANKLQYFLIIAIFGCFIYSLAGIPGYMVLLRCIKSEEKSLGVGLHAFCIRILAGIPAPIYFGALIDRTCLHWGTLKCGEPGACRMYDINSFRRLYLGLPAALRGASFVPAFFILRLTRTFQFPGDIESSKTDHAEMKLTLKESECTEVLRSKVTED

[3] = molecular target: T1, Solute carrier organic anion transporter family member 1A1; assay: (§2) TP_TRANSPORTER: Western in vivo SD rat, liver
[4] = molecular target: T2, Solute carrier organic anion transporter family member 1A4; assay: as §2

**Q.** How did the Activity [1] turn out when CCC1(c2ccccc2)C(=O)NC(=O)NC1=O [PHENOBARBITAL] was run?
**A.** is not an inducer [-]

**Q.** What about the Activity [2] of the same molecule?
**A.** inducer [+]

**Q.** And the Activity [3]?
**A.** is not an inducer [-]

**Q.** And the Activity [4]?
**A.** inducer [+]
